Tests used:
BT-549 = assay: cells; assay type: cell-based; settings: BT-549 (Breast Cancer)
MDA-MB-468 = assay: cells; assay type: cell-based; settings: MDA-MB-468 (Breast Cancer)
truncated human RET = biological target: T1, truncated human RET (Homo sapiens, UniProt P07949); assay: Inhibition of enzymatic kinase activity (LANCE Ulight); assay type: biochemical
T1 construct: truncated human FAK, RET, FLT3, JAK2, and LRRK2 (CARNA BIOSCIENCES™); purchased Carna Biosciences
T1 sequence (P07949 658-1114 limits assumed): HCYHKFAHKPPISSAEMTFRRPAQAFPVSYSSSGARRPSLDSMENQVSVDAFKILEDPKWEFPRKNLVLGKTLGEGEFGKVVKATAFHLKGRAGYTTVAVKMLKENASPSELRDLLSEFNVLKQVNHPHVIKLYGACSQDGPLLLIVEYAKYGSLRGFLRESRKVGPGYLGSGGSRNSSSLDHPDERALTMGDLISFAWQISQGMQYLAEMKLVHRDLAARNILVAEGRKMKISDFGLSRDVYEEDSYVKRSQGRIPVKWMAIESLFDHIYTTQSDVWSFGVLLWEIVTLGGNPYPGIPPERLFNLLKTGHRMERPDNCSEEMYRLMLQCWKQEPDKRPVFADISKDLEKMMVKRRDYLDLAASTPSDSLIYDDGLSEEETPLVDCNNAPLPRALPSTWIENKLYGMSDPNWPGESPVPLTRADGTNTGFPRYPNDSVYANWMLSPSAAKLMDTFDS

human ZAP70 = biological target: T2, human ZAP70 (Homo sapiens, UniProt P43403); assay: as above; assay type: biochemical; settings: at 1 μM concentration; read-out: ZAP70 percentage inhibition
T2 construct: Purified full-length human SYK, ZAP70, PIM1, PYK2; purchased Carna Biosciences
T2 sequence (P43403 1-619): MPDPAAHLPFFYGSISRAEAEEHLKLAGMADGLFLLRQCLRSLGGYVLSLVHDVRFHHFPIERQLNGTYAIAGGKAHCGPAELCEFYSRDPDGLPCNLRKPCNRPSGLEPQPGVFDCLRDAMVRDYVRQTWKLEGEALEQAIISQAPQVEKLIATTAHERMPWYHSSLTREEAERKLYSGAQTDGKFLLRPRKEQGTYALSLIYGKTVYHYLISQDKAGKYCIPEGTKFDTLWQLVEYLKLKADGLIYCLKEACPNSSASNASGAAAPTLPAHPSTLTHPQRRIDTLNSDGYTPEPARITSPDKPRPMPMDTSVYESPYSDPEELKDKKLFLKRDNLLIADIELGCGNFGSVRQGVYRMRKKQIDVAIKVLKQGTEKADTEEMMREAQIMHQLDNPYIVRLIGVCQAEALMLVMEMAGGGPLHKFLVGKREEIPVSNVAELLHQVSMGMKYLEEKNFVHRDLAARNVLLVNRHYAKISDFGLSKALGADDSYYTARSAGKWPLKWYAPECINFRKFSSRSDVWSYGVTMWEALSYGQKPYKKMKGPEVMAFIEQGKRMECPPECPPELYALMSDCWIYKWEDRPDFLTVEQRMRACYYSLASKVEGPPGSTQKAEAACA

truncated human FAK = biological target: T3, truncated human FAK (Homo sapiens, UniProt Q05397); assay: as above; assay type: biochemical; settings: at 1 μM concentration; read-out: FAK percentage inhibition
T3 construct: truncated human FAK, RET, FLT3, JAK2, and LRRK2 (CARNA BIOSCIENCES™); purchased Carna Biosciences
T3 sequence (Q05397 376-1052 limits assumed): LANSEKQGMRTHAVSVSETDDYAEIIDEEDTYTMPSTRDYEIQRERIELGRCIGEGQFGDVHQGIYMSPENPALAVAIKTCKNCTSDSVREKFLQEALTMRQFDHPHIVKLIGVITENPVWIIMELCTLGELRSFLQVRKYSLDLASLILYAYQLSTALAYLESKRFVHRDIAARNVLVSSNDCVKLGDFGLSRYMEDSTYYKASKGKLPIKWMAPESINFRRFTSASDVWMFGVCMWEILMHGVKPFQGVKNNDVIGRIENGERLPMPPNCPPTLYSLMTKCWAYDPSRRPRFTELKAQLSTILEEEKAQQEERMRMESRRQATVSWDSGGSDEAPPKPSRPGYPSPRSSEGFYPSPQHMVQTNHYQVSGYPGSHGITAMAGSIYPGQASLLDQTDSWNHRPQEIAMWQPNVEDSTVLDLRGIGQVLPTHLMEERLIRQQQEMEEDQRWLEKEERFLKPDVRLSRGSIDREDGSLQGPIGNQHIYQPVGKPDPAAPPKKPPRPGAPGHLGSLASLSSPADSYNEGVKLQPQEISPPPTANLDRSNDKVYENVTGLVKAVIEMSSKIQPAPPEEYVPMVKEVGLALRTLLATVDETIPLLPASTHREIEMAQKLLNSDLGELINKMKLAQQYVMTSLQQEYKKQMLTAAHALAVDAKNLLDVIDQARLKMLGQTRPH

[1] = Homo sapiens, read-out: LC50 (the source's name)

## O=c1[nH]ccc2nc(N3CCC(O)CC3)nc(Nc3cccc(C(F)(F)F)c3)c12 [Compound 6, 2-(4-hydroxypiperidin-1-yl)-4-(3-(trifluoromethyl)phenylamino)pyrido[4,3-d]pyrimidine-5(6H)-one]
BT-549
  TGI: 4.37 µM
BT-549; Homo sapiens
  GI50: 1.58 µM
  IC50: 4.57 µM
BT-549; [1]
  CC50: 14.1 µM
MDA-MB-468; Homo sapiens
  GI50: 1.78 µM
  IC50: 4.68 µM
MDA-MB-468; [1]
  CC50: 100 µM
MDA-MB-468
  TGI: 7.08 µM
Truncated human RET
  IC50: 0.0942 µM
Human ZAP70
  inhibition at 1 µM: 49%
Truncated human FAK
  inhibition at 1 µM: 78%
